Measured values published in publication PMC10744032, “Regioselective and Stereoselective Synthesis of Parthenolide Analogs by Acyl Nitroso-Ene Reaction and Their Biological Evaluation against Mycobacterium tuberculosis” (International Journal of Molecular Sciences, 2023).
In brackets after ≈: the same amount, converted by molar mass. Where two headings read alike, the source gives them in different places.

Key:
[1] = Kinetic solubility in PBS by LC-MS/MS; type: physicochemical
Method: The kinetic solubility was determined using LC–MS/MS analysis in PBS at pH 7.4. Briefly, a 10 mM 100% DMSO solution of the compound was diluted 50-fold either in PBS at pH 7.4 (in triplicate) or in DMSO in polypropylene tubes (n = 3 for PBS and n = 6 for DMSO). The tubes were gently shaken for 24 h at 21 °C. Then, the three PBS tubes and three of the six DMSO tubes were centrifuged for 5 min at 4000 rpm and filtered over 0.45 μm filters (Millex-LH Millipore). Then, 40 μL of each solution was diluted in 160 μL of MeCN and 40 µL of Milli-Q water and transferred to matrix tubes for the LC–MS/MS analysis. The solubility was determined according to the following formula: Solubility (μM) = (AUC (filtered PBS)/AUC (not filtered DMSO)) × 200. The test was validated if (AUC (not filtered DMSO) − AUC (filtered DMSO))/AUC (not filtered DMSO) ≤ 10%.

M. tuberculosis strains = test system: M. tuberculosis strains; set-up: method as in PMID 9747541; settings: cited from earlier work
M. tuberculosis H37Rv = experiment: microbe, parasite or virus in culture; type: cell-based, Mycobacterium tuberculosis; settings: 7 days incubation, resazurin readout, tested 300 to 2.3 µM, read-out: MIC90 M. tuberculosis (REMA)
[2] = test system: M. tuberculosis H37Rv expressing GFP (H37Rv::pJKD6); experiment: microbe, parasite or virus in culture; type: cell-based, Mycobacterium tuberculosis; settings: for MIC: Mycobacterium tuberculosis, H37RV, 168 h, read-out: MIC98 M. tuberculosis (GFP)
[3] = Cytotoxicity by live imaging (Hoechst 33342 / propidium iodide); type: cell-based; settings: mouse
Method: (§1) The cytotoxicity of the compounds to BALB/3T3 cells was determined using live imaging following both Hoechst 33342 and propidium iodide staining. Briefly, BALB/3T3 cells were seeded in a 384-well plate and 24 h later, the compounds were added (0, 12.5, 25, 50, and 100 µM) to the culture medium, as well as Hoechst 33342 and propidium iodide (PI). Then, 24 h and 48 h after the compounds were added, live imaging was performed using an In Cell Analyzer 6000 (STP GE Healthcare, Glascow, UK). The cytotoxicity was defined based on the ratio of the population of dead or dying cells (propidium iodide staining) to the total cell population (Hoechst staining), as determined using Columbus software 2.9.1 (PerkinElmer Informatics, WA, USA). The compounds were tested in triplicate. Carfilzomib (500, 250, 140, and 60 nM) was used as the positive control in this assay.

[4] = test system: Staphylococcus aureus (SH1000); experiment: microbe, parasite or virus in culture; type: cell-based; settings: 5 h incubation, resazurin readout, tested 300 to 2.3 µM, read-out: MIC90 S. aureus (REMA)
BALB/3T3 cells = experiment: Cytotoxicity by live imaging (Hoechst 33342 / propidium iodide); type: cell-based; settings: BALB/3T3 cells; 0, 12.5, 25, 50, 100 µM; imaging at 24 h and 48 h; read-out: Cytotoxicity Balb3T3 CC50
Method: as §1

[5] = 21 °C, pH 7.4, aqueous buffer, kinetic from dmso stock
[6] = Mycobacterium tuberculosis, H37RV, 168 h

C=C1C(=O)O[C@H]2[C@H]1CC/C(C)=C/CC[C@@]1(C)O[C@@H]21 [Compound 1, Parthenolide]
solubility at 24 h [1, 5]: 135 µM (≈ 33.5 µg/mL) | minimum inhibitory concentration (MIC) against M. tuberculosis strains (M. tuberculosis strains): 16 µg/mL (≈ 64.4 µM) | MIC90 (M. tuberculosis H37Rv; [6]): 9.4 to 19 µM (≈ 2.33 to 4.72 µg/mL) | MIC [2]: 9.4 to 19 µM (≈ 2.33 to 4.72 µg/mL) | CC50 [3]: > 100 µM | MIC90 ([4]; Staphylococcus aureus): > 300 µM

C=C1CC[C@H]2C(=C)C(=O)O[C@@H]2[C@@H]2O[C@]2(C)CC[C@H]1N(O)C(=O)OCC(Cl)(Cl)Cl [Compound 15, 2,2,2-trichloroethyl-N-hydroxy-N-[(1S,2S,4R,7R,11S)-4-methyl-8,12-dimethylene-13-oxo-3,14-dioxatricyclo[9.3.0.02,4]tetradecan-7-yl]carbamate]
solubility at 24 h [1, 5]: 184 µM (≈ 83.7 µg/mL) | MIC90 (M. tuberculosis H37Rv; [6]): 38 µM (≈ 17.3 µg/mL) | MIC [2]: 19 µM (≈ 8.64 µg/mL) | CC50 [3]: 12.5 µM | MIC90 ([4]; Staphylococcus aureus): > 300 µM

C=C1CC[C@H]2C(=C)C(=O)O[C@@H]2[C@@H]2O[C@]2(C)CC[C@H]1N(O)C(=O)Oc1ccc(F)cc1 [Compound 16, (4-fluorophenyl)-N-hydroxy-N-[(1S,2S,4R,7R,11S)-4-methyl-8,12-dimethylene-13-oxo-3,14-dioxatricyclo[9.3.0.02,4]tetradecan-7-yl]carbamate]
solubility at 24 h ([1]; aqueous buffer, kinetic from dmso stock, kinetic solubility, PBS pH 7.4, 24 h at 21 °C, from 10 mM DMSO solution diluted 50-fold, read-out: Solubility): 182 µM (≈ 76 µg/mL) | MIC90 (M. tuberculosis H37Rv; [6]): 75 µM (≈ 31.3 µg/mL) | MIC [2]: 38 to 75 µM (≈ 15.9 to 31.3 µg/mL) | CC50 ([3]; BALB/3T3 cells, 0, 12.5, 25, 50, 100 µM, imaging at 24 h and 48 h, read-out: Cytotoxicity Balb3T3 CC50): 25 µM | MIC90 ([4]; Staphylococcus aureus): > 300 µM

tert-butyl-N-hydroxy-N-[(1S,2S,4R,7R,11S)-4-methyl-8,12-dimethylene-13-oxo-3,14-dioxatricyclo[9.3.0.02,4]tetradecan-7-yl]carbamate [Compound 12]
solubility at 24 h ([1]; kinetic solubility, PBS pH 7.4, 24 h at 21 °C, from 10 mM DMSO solution diluted 50-fold, read-out: Solubility): 176 µM | MIC90 (M. tuberculosis H37Rv): 38 µM | MIC98 M. tuberculosis (GFP) [2]: 19 to 38 µM | CC50 (BALB/3T3 cells): > 100 µM | MIC90 [4]: >300 µM
